Data reported in patent US12201679B2, “Epitope-targeted peptide immunostimulants” (priority 2019, dated 2025).
Entries after “also recorded” stand apart in the source; their conditions may differ. Bridge positions count the residues as written; N and C are the ends. Square brackets hold non-standard residues; d marks the D form. Triazole bridges read from a SMILES are 1,4-linked. Ends that are not written are not given here. Peptide text beside a SMILES is read from it. Lys(N3) = [N-]=[N+]=NCCCC[C@H](N)C(=O)O; Pra = C#CC[C@H](N)C(=O)O

Tests used:
[1] = biological target: full-length recombinant MrkA protein (Klebsiella pneumoniae, UniProt P12267); type: binding; settings: sandwich ELISA, alanine scan and analogues
Source text: HPraGly is present before X1 in each peptide and Az4 follows X5 in each peptide.

[2] = tested on: MrkA-knockout KPPR1 cells; experiment: Whole-cell ELISA, biotinylated PCC, MrkA-knockout KPPR1; type: cell-based, Klebsiella pneumoniae
Description: ELISA signals were only observed for K. pneumoniae cells (strain BAA 1705) cultured in G-CAA (FIG. 11A), when treated with PCCs at concentrations of 5 μM or lower.
(§1) Detection of the binding of biotinylated PCCs to bacterial surface was performed as follows. 10^8 bacteria from a culture grown overnight were used for each test. Bacteria were incubated with PBS containing 1% BSA (PBS-BSA) for 1 h at 37° C., washed once with PBS, and then incubated with 5 μM of the biotinylated PCC in PBS-BSA for 1 h at 37° C. After washing thrice with PBS to remove unbound PCCs, bacteria were incubated with Streptavidin-HRP (1:1000) for 1 h at 37° C. Bacteria were washed thoroughly and the TMB reagent was added until visible coloration was observed. The reaction was quenched using 2N H2SO4 and absorbance was measured at 450 nm.

[3] = tested on: K. pneumoniae cells (strain BAA 1705); experiment: Gentamicin protection assay: phagocytosis and opsonophagocytic killing (OPK) by macrophages; type: cell-based, Klebsiella pneumoniae
Description: It also tested whether DNP-conjugated EPIs could promote the opsonophagocytic killing (OPK) of K. pneumoniae by macrophages. This was tested by using an OPK assay. Briefly, K. pneumoniae cells were treated with EPI and then anti-DNP antibody before being exposed to macrophages for either 6 or 24 hours. During this incubation period, macrophages that recognize K. pneumoniae cells will phagocytose them, and phagocytosed bacteria will remain viable for up to 6 hours, but within 24 hours are rendered inviable by OPK. Thus, macrophages were isolated after 6 and 24 hours of incubation with K. pneumoniae, lysed them, and plated and grew the lysate, which yielded bacterial colonies that reflect the phagocytosis (at 6 hrs) or OPK (at 24 hrs) of bacteria.
Given that cy(LLFFF)-DNP (SEQ ID NO:5) recruits antibodies to K. pneumoniae surfaces, it was expected that K. pneumoniae opsonized in this manner would be more susceptible to phagocytosis by macrophages. AR-PCC-driven phagocytosis and OPK were quantified by a gentamicin protection assay, as depicted in FIG. 7A. For this assay, K. pneumoniae cells (strain BAA 1705) were treated with cy(LLFFF)-DNP (SEQ ID NO:5), opsonized by anti-DNP antibodies, and then incubated with murine bone-marrow-derived macrophages (BMDMs). BMDMs were subsequently exposed to a solution containing gentamicin, to which K. pneumoniae strain BAA 1705 is susceptible, to kill any extracellular bacteria. Phagocytosed bacteria remain viable inside BMDMs for at least 1 h, yet are rendered inviable after 24 h by OPK (FIG. 13). Macrophages harvested at 1 h and 24 h were lysed and plated to generate bacterial colonies, which were enumerated to quantify phagocytosis and OPK.
Klebsiella pneumoniae BAA1705 was treated with DNP-PCCs followed by incubation with anti-DNP antibody, as described above in the “Cell-Based ELISAs” section. These opsonized bacteria were then used to infect BMDMs at a multiplicity of infection of 50 for 0.5 h at 37° C. Bacteria were then washed by using RPMI 1640 Media and BMDMs were left in cell culture medium containing gentamicin (100 μg/ml). After 1 h and 24 h BMDMs were washed to remove gentamicin and intracellular bacteria were harvested by lysing BMDMs in RPMI media containing 0.2% Triton X 100. Bacterial CFUs were enumerated by plating onto LB agar. Bacterial counts at 1 h indicated the degree of opsonization while those at 24 h served as a measure of microbicidal activity of macrophages. For these measurements, anti-MrkA antibody and K. pneumoniae antiserum were used at dilutions of 5 μg/mL each.

SynEp 1 = SynEp 1 (Klebsiella pneumoniae, UniProt P12267, V41X); experiment: Epitope selectivity sandwich ELISA, immobilized SynEp 1; settings: DNP-conjugated ligand at 500 nM, background biotin-PEG6
[4] = tested on: wild type KPPR1 (ATCC 43816) cells; experiment: Whole-cell ELISA, biotinylated PCC, wild type KPPR1; type: cell-based, Klebsiella pneumoniae; settings: biotinylated PCC 5 μM down to 5 nM, G-CAA media
Description: In this assay, bacteria are exposed to biotinylated PCC ligands, then SAv-horseradish peroxidase (SAv-HRP), and then developed to produce a colorometric signal that correlates with SAv-HRP binding.
Whole-cell ELISA assays were conducted on the wild type version of the clinically-relevant strain of K. pneumoniae, KPPR1 (ATCC 43816). Wild type KPPR1 cells were cultured in G-CAA media to promote fimbrial expression (54), and MrkA expression in KPPR1 was confirmed by a western blot (FIG. 5B inset, full blot in FIG. 9).
as §1

Escherichia coli = experiment: Whole-cell ELISA, biotinylated PCC, E. coli; type: cell-based; settings: biotinylated PCC at 5 μM, FIG. 5C
Description: (§2) Whole-cell ELISA data in FIG. 5C show strong signal from the two strains of K. pneumoniae (BAA 1705 and BAA 2146) but only weak signals from Escherichia coli (E. coli) or Salmonella typhimurium (S. typhimurium) cells. […] In these tests, droplets of phosphate buffered solution containing live bacteria or heat-killed bacteria and various concentrations of (NH4)2SO4 at 10 m or 30 m following mixing were imaged. Aggregation in each droplet was assessed by visual inspection and scored as indicating non-aggregated, low levels of aggregation, or extensive aggregation. All droplets were on a single glass slide and image acquisition of all droplets took less than a minute for each 10 m and 30 m time point.
as §1

Salmonella typhimurium = experiment: Whole-cell ELISA, biotinylated PCC, S. typhimurium; type: cell-based; settings: biotinylated PCC at 5 μM, FIG. 5C
Description: as §2, §1

[5] = tested on: K. pneumoniae cells, BAA 1705 and BAA 2146; experiment: Whole-cell ELISA, anti-DNP recruitment to bacterial cell surfaces; type: cell-based, Klebsiella pneumoniae; settings: cy(LLFFF)-DNP 5 or 10 μM; dummy cy(HNGPT)-DNP 50 and 100 μM; plus anti-DNP
Description: FIG. 12 is a plot of 450 nm absorbances obtained from a cell-based ELISA assay conducted on two strains of K. pneumoniae cells, BAA 1705 (black) and BAA 2146 (orange), that were either untreated or opsonized by EPIs (AR-PCCs) and/or antibodies. […] This establishes EPI-driven opsonization by cy(LLFFF)-DNP (SEQ ID NO:5).
The protocol for detecting anti-DNP recruitment to bacterial cell surfaces is as follows. Bacteria were incubated with the desired concentration of DNP-conjugated PCCs in PBS-BSA for 1 h at 37° C. Residual PCCs were washed off by using PBS-BSA and bacteria were incubated with anti-DNP antibody (1:1000) for 1 h at 37° C. After washing, bacteria were incubated with HRP conjugated secondary antibody (Bio-Rad) at a dilution of 1:10,000 for 1 h at 37° C. Unbound antibody was washed off by using PBS-BSA and the cells were then developed by using TMB reagent. The reaction was quenched using 2N H2SO4 and absorbance was measured at 450 nm. Anti-MrkA antibody was procured from Biorbyt (orb51318) and used at a concentration of 5 μg/mL, and K. pneumoniae antiserum was obtained from abcam (ab20947) and used at a concentration of 5 μg/mL.

[6] = tested on: K. pneumoniae (strains BAA 1705 & 2146); experiment: Whole-cell ELISA, biotinylated PCC, multidrug-resistant K. pneumoniae; type: cell-based, Klebsiella pneumoniae; settings: for whole-cell ELISA binding at high PCC concentration: strain BAA 1705, 50 μM PCC, LB or G-CAA; for whole-cell ELISA 450 nm absorbance, cells cultured in G-CAA (high MrkA) / whole-cell ELISA 450 nm absorbance, cells cultured in LB (low MrkA): strain BAA 1705, PCC 5 μM to 5 nM
Description: Detection of the binding of biotinylated PCCs to bacterial surface was performed as follows. 10^8 bacteria from a culture grown overnight were used for each test. […] After washing thrice with PBS to remove unbound PCCs, bacteria were incubated with Streptavidin-HRP (1:1000) for 1 h at 37° C. Bacteria were washed thoroughly and the TMB reagent was added until visible coloration was observed. The reaction was quenched using 2N H2SO4 and absorbance was measured at 450 nm.

[7] = tested on: K. pneumoniae cells (strain BAA 2146); experiment: Flow cytometry, recruitment of fluorescent anti-DNP antibodies; type: cell-based, Klebsiella pneumoniae; settings: 50 μM AR-PCC plus Alexafluor 488 anti-DNP
[8] = tested on: live MRSA cells or heat-killed MRSA cells; experiment: ELISA, PCC-driven SAv-HRP recruitment to MRSA cells; type: cell-based, Staphylococcus aureus; settings: biotinylated PCC, with or without 0.4 micrograms/mL tunicamycin
Description: FIG. 16A-16B are graphs showing PCC-driven recruitment of streptavidin-horseradish peroxidase (SAv-HRP) conjugate to live MRSA cells (FIG. 16A) or heat-killed MRSA cells (FIG. 16B) cultured under different antibiotic conditions via enzyme-linked Immunosorbent Assays (ELISAs). All tests were conducted by coating the antigen (MRSA cells) onto the wells of 96-well plates and then exposing the wells solutions containing biotinylated PCCs, then SAv-HRP, then HRP substrate followed by detection via absorbance at 450 nm. Absorbance values greater than the “no PCC” background indicate that several PCCs recruit SAv-HRP to either live cells (FIG. 16A) or heat-killed cells (FIG. 16B) cultured either without antibiotic (“−tunicamycin”, blue bars) or with 0.4 micrograms/mL of tunicamycin (“+tunicamycin”, red), which reduces the expression of wall teichoic aids by MRSA. All measurements were conducted in triplicate and error bars reflect standard deviations. The PCC sequences are, from left to right in both graphs, SEQ ID NOs: 6, 23, 34, and 29.
The recruitment ability of selected PCCs was assessed by PCC-driven recruitment of streptavidin-horseradish peroxidase (SAv-HRP) conjugate to live MRSA cells (FIG. 16A) or heat-killed MRSA cells (FIG. 16B) cultured under different antibiotic conditions via enzyme-linked Immunosorbent Assays (ELISAs). […]

CC(C)C[C@@H]1NC(=O)[C@H](CC(C)C)NC(=O)[C@@H](N)Cc2cn(nn2)CCCC[C@@H](C(=O)O)NC(=O)[C@H](Cc2ccccc2)NC(=O)[C@H](Cc2ccccc2)NC(=O)[C@H](Cc2ccccc2)NC1=O [cy(LLFFF)] (H-[Pra]LLFFF[Lys(N3)]-OH; triazole 1-7)
binding to full-length MrkA compared to cy(LLFFF) [1]: highest affinity
whole-cell ELISA signal, MrkA-knockout KPPR1 [2]: comparable to baseline; also recorded: but not MrkA-knockout KPPR1
CFU, DNP-conjugated EPI plus anti-DNP, macrophages harvested at 6 hrs ([3]; 6 hrs): more than 80,000 CFU
cell counts, DNP-conjugated EPI only (no antibody), macrophages harvested at 6 hrs ([3]; 6 hrs): ~35,000
cell counts at 24 h (OPK) ([3]; 24 h of incubation): little to no cell counts
ELISA signal on SynEp 1 (SynEp 1): Negative signals
whole-cell ELISA signal, wild type KPPR1 [4]: strong signals; also recorded: binds wild type MrkA-expressing KPPR1 cells
whole-cell ELISA signal, E. coli (Escherichia coli): small absorbances; also recorded: weak signals
whole-cell ELISA signal, S. typhimurium (Salmonella typhimurium): small absorbances; also recorded: weak signals
450 nm absorbance, anti-DNP opsonization of K. pneumoniae [5]: much larger signal
whole-cell ELISA binding at high PCC concentration [6]: bound K. pneumoniae cells regardless of MrkA-expression level; also recorded: strong and comparable ELISA signals
whole-cell ELISA 450 nm absorbance, cells cultured in G-CAA (high MrkA) [6]: strong absorbances
whole-cell ELISA 450 nm absorbance, cells cultured in LB (low MrkA) [6]: near-baseline absorbances
binding selectivity towards MrkA-expressing K. pneumoniae cells versus E. coli and S. typhimurium ([6]; whole-cell ELISA, FIG. 5C): excellent binding selectivity

cy(HNGPT)-DNP (cyclo(HNGPT); also: DNP label) [reference compound]
fluorescence intensity of cells (predominantly) [7]: < 1.0×10^1 intensity
450 nm absorbance, anti-DNP opsonization of K. pneumoniae [5]: Much smaller signals

cy(LLFFA) (cyclic)
whole-cell ELISA signal, MrkA-knockout KPPR1 [2]: comparable to baseline; also recorded: Much lower binding
colony counts at 1 h, EPI plus anti-DNP antibody ([3]; 5 μM AR-PCC, murine BMDMs, 1 h): 85,000 CFU
whole-cell ELISA signal, wild type KPPR1 [4]: much lower intensities; also recorded: Much lower binding
whole-cell ELISA signal, E. coli (Escherichia coli): low signals
whole-cell ELISA signal, S. typhimurium (Salmonella typhimurium): low signals
whole-cell ELISA signal, K. pneumoniae BAA 1705 and BAA 2146 ([6]; biotinylated PCC at 5 μM, FIG. 5C): low signals; also recorded: no or minimal binding above baseline
whole-cell ELISA binding at high PCC concentration [6]: bound K. pneumoniae cells regardless of MrkA-expression level; also recorded: strong and comparable ELISA signals
whole-cell ELISA 450 nm absorbance, cells cultured in G-CAA (high MrkA) [6]: near-baseline absorbances
whole-cell ELISA 450 nm absorbance, cells cultured in LB (low MrkA) [6]: near-baseline absorbances

cy(akkrp) ([dA][dK][dK][dR][dP]; not fully specified (bridges); printed as cy(akkrp); also: cyclic, closure not given here)
SAv-HRP recruitment to MRSA cells [8]: Standout recruiting peptides

cy(kpdew) ([dK][dP][dD][dE][dW]; not fully specified (bridges); printed as cy(kpdew); also: cyclic, closure not given here)
SAv-HRP recruitment to MRSA cells [8]: Standout recruiting peptides
